Earlier results as cited in patent US6322816A, “Fast-acting analgesic” (priority 1997, dated 2001).
Counter-ions that a name gives are not always drawn.

How the values were obtained:
[1] = in words, background
[2] = versus free acid; in words, background
[3] = in words, DE-C 36 39 038

## CC(C)Cc1ccc(C(C)C(=O)O)cc1 (racemic) [ibuprofen, 2-(4-isobutylphenyl)propionic acid]
[1]
  solubility: low solubility

## CC(C)Cc1ccc(C(C)C(=O)O)cc1 (racemic) [lysine salt]
[2]
  maximum blood level Cmax compared with the free acid: distinctly faster and higher maximum blood level Cmax

## CC(C)Cc1ccc(C(C)C(=O)O)cc1 (racemic) [sodium ibuprofenate]
[1]
  hygroscopicity: hygroscopic

## CC(C)Cc1ccc([C@H](C)C(=O)O)cc1 [S(+) isomer, S(+)-ibuprofen]
[3]
  onset of action: faster onset of action
